Source: patent US8460669B2, “Compositions and methods for identifying response targets and treating flavivirus infection responses” (Academia Sinica, priority 2005, dated 2013)

T1: MMR.Fc (Homo sapiens, UniProt P22897)
T1 construct: The extracellular domains of lectin receptors, TREMs and TLTs were cloned by the reverse-transcriptase polymerase chain reaction (RT-PCR); made in house; host or cells: 293-F (FreeStyle 293) cells
T1 sequence (P22897 19-1389 limits assumed): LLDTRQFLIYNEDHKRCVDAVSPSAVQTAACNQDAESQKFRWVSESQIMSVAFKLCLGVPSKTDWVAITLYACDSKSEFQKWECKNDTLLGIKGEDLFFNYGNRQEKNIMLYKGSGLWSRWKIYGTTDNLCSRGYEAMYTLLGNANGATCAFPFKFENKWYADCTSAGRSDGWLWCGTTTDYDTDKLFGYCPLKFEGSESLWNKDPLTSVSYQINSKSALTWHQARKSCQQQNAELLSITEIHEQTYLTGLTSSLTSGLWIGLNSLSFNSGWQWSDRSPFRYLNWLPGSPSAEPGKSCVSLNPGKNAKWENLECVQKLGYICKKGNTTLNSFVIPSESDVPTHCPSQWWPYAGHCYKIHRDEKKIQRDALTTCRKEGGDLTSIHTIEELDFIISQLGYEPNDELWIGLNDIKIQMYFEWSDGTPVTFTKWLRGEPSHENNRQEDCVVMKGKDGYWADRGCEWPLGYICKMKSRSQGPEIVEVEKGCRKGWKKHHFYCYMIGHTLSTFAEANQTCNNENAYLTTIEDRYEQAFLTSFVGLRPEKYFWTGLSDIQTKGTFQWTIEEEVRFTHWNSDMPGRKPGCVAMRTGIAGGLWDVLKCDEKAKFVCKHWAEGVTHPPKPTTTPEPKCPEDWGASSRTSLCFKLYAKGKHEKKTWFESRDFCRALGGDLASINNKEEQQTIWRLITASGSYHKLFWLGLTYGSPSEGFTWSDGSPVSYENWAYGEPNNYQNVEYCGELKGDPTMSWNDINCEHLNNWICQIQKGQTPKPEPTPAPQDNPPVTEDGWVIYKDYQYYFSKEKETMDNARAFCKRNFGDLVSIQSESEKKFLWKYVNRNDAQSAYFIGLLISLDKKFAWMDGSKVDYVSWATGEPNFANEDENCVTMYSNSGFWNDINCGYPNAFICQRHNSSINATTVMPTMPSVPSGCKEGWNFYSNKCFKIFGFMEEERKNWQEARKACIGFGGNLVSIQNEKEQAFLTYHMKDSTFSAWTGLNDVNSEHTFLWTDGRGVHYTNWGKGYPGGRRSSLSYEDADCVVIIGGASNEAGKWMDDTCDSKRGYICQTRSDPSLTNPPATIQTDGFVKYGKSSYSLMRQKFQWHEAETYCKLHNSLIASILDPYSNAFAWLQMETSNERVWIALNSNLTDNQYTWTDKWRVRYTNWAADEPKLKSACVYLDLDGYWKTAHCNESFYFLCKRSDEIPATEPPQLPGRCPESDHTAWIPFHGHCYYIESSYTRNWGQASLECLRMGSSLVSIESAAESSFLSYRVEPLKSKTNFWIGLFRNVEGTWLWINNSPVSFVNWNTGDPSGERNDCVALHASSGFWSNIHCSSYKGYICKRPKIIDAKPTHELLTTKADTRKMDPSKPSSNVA

T2: DC-SIGN (Homo sapiens, UniProt Q9NNX6)
T2 construct: expressed in transfected cells; host or cells: 293T cells
T2 sequence (Q9NNX6 1-404): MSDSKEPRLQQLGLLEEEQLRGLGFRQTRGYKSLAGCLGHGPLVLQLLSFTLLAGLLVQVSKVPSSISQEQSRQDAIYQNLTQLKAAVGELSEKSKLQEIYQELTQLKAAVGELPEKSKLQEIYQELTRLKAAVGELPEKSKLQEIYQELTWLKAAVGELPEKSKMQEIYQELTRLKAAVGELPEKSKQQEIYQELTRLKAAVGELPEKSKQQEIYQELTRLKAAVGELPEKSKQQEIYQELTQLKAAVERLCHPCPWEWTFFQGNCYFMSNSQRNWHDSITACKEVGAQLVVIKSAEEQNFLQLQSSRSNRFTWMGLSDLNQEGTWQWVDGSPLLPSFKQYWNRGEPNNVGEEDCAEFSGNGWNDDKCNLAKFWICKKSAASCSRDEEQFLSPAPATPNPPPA

T3: DC-SIGN (Homo sapiens, UniProt Q9NNX6)
T3 construct: The extracellular domains of lectin receptors, TREMs and TLTs were cloned by the reverse-transcriptase polymerase chain reaction (RT-PCR); made in house; host or cells: 293-F (FreeStyle 293) cells
T3 sequence (Q9NNX6 59-404 limits assumed): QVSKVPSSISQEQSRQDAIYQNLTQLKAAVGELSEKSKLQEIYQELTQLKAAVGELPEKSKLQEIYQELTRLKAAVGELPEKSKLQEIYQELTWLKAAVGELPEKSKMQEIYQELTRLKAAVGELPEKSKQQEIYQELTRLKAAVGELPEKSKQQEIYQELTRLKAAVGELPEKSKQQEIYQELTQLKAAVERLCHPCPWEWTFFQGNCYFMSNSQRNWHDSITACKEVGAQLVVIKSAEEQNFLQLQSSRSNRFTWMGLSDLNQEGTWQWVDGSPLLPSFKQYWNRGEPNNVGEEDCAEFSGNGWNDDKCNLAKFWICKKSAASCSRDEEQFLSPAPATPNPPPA

B1: sDVLR1/CLEC5A: alternatively spliced form of human DVLR1/CLEC5A (aa 43-65 deleted), SEQ ID NO: 73 (protein)
chain: MNWHMIISGLIVVVLKVVGMTLFLLYFPQIFNKSNDGFTTTRSYGTVCPKDWEFYQARCFFLSTSESSWNESRDFCKGKGSTLAIVNTPEKLFLQDITDAEKYFIGLIYHREEKRWRWINNSVFNGNVTNQNQNFNCATIGLTKTFDAASCDISYRRICEKNAK
modifications: Human

Columns and labels:
MMR.Fc = target: T1, MMR.Fc; assay: Sugar competition EIA, MMR.Fc binding to GLPS-F3; details: sugar 1 mg/ml
Protocol: (§1) The interaction between GLPS-F3 and receptor.Fc was then tested. Unbiotinylated GLPS-F3 was immobilized at 100 ng/well as described above, and 100 μL receptor.Fc fusion protein (1 μg/ml in 2 mM MgCl2/2 mM CaCl2/1% BSA/TBST) was added into each well and incubated for 1 hour at room temperature. After washing with TBST, wells were incubated with peroxidase-conjugated goat anti-human IgG Ab (1:5000 dilution, Jackson ImmunoResearch Laboratories) in blocking buffer at room temperature for 30 min. Wells were incubated with 100 μL TMB substrate for 15 min after TBST washing and read at 450 nm in a Fusion plate reader (Perkin Elmer). The results were normalized with respect to Fc.Dectin-1 binding (Dectin-1 is a known lectin receptor that binds to β-1,3-glucan which is the backbone found in GLPS-F3). FIG. 6B depicts in graphical form the affinity of each receptor for GLPS-F3 relative to Dectin-1. […] There was also weaker but positive GLPS-F3 binding ability (25-50% binding intensity compared to Fc.dectin-1) found in Fc.NKG2D, Fc.MINCLE, Fc.mKCR, DCAL1.Fc, DEC205.Fc, Endo180.Fc and NKp30(NCR3).Fc.
(§2) To understand the interaction of GLPS-F3 with specific innate immunity receptors, the polysaccharides mannan and β-glucan and the monosaccharides D-mannose (Man), D-glucose (Glc), N-acetyl-glucosamine (GlcNAc), D-galactose (Gal), N-acetyl-galactosamine (GalNAc), L-fucose (Fuc) and sialic acid, were used in a competition assay. […] The assays were carried out as in Example 9, with the addition of 1 mg/ml of each polysaccharide or monosaccharide.

Langerin = target: T4, Langerin (Homo sapiens, UniProt Q9UJ71); assay: Sugar competition EIA, Fc.Langerin binding to GLPS-F3; details: sugar 1 mg/ml
T4 construct: The extracellular domains of lectin receptors, TREMs and TLTs were cloned by the reverse-transcriptase polymerase chain reaction (RT-PCR); made in house; host or cells: 293-F (FreeStyle 293) cells
Protocol: as §1, §2

TLR4.Fc = target: T5, TLR4.Fc (Homo sapiens, UniProt O00206); assay: Sugar competition EIA, TLR4.Fc binding to GLPS-F3; details: sugar 1 mg/ml
T5 construct: The extracellular domains of several innate immunity receptors from immune cells were cloned by reverse-transcription polymerase chain reaction (RT-PCR); made in house; host or cells: 293-F (FreeStyle 293) cells
Protocol: as §1, §2

DC-SIGN [1] = target: T2, DC-SIGN; assay: Sugar competition, biotinylated DV binding to DC-SIGN-transfected 293T cells; assay type: cell-based; details: flow cytometry
Protocol: In FIG. 16b, complexes of DV (5×10^6 PFU) with receptor.Fc (5 μg) were immunoprecipitated and detected on westerns with mAb to DV envelope (E) protein. […] FIGS. 16d and 16e show sugar competition assays wherein both DC-SIGN (CLEC4L) and DVLR1/CLEC5A increase DV binding to human 293T cells (FIG. 16d), while addition of sugars inhibits biotinylated DV binding to DC-SIGN- (left panel) or DLVR1/CLEC5A- (right panel) transfected 293T cells in a dose-dependent manner as determined by flow cytometry (FIG. 16e). According to FIG. 16e, MFI represents mean fluorescence intensity. Units (U) for monosaccharide (mannose and fucose) and polysaccharide (mannan) are mM and mg/ml, respectively. […] Data are expressed as the mean±s.d. of three independent experiments. Two-tailed, Student's t-tests were performed.
There are two conserved N-linked glycosylation sites at Asn-67 and Asn-153 of E protein (Pokidysheva, E. et al., Cell 124:485-93 (2006)), and the attached glycans (with terminal fucose and mannose) have been implicated in cellular attachment and viral entry (Modis, Y. et al., J. Virol. 79:1223-1231 (2005)). To investigate the participation of glycans in the association of DVLR1/CLEC5A with DV, virions were incubated with fucose, mannose, or mannan; where the last two sugars are the ligands for DC-SIGN (Mitchell et al., J. Biol. Chem. 276: 28939-28945 ([…])).

DC-SIGN [2] = target: T3, DC-SIGN; assay: Sugar competition EIA, Fc.DC-SIGN binding to GLPS-F3; details: sugar 1 mg/ml
Protocol: as §1, §2

Dengue virus = assay: ELISA of receptor.Fc interaction with Dengue virus; assay type: binding; details: receptor.Fc 1 μg; DV 5×10^6
Protocol: One μg of each receptor.Fc fusion protein was coated onto microtiter plates overnight at 4° C. DV (5×10^6 particles) of strain 16681 (a DEN2 strain) in binding buffer (1% BSA, 2 mM CaCl2, 2 mM MgCl2, 50 mM Tris-HCl pH 7.5, 150 mM NaCl) was then added to the plates and the plates were incubated for 2 hours. After washing non-bound virus, a biotinylated anti-DEN2 envelope protein antibody (Wu et al., J Virol, 2002. 76(8): p. 3596-604) was applied to bind to the virus for 1 hour. Diluted horseradish peroxidase-conjugated streptavidin was then added to the plates, followed by a 1 hour incubation. TMB substrate was then added and the plates were read using an ELISA reader at OD450 nm.
The microtiter plate assay was repeated in the presence of EDTA (10 mM) to chelate Ca^++ cations.
The microtiter plate assay was also repeated for DVLR1/CLEC5A.Fc fusion protein with DV particles (5×10^6) that had been 1) preincubated with 500 U of the glycosidase PNGaseF (New England Biolabs, Inc.) overnight at 37° C.; or 2) treated with dithiothreitol (DTTI) (0.1M); or 3) incubated at 95° C. for 5 minutes; or 4) UV irradiated for 5 minutes. The results are shown in FIG. 8D (asterisks indicate where the binding affinity of DVLR1/CLEC5A.Fc fusion protein is altered by modification of the virus relative to non-treated virus; ** p<0.01, *** p<0.001, Student's t test). […]

JEV = assay: ELISA of DVLR1/CLEC5A.Fc interaction with JEV; assay type: binding, Japanese encephamyelitis virus; details: 1 μg; JEV 5×10^6 PFU
Protocol: Like with DV, JEV follows a similar virus infection response pattern, which is believed to be the same or similar in all flaviviruses. […] (1 μg), with JEV and DV (5×10^6 PFU), respectively, were determined by ELISA. DV interacts with human DVLR1/CLEC5A (187 amino acid in length) SEQ ID NO: 72, but not the alternatively spliced form sDVLR1/CLEC5A (aa 43-65 is deleted). SEQ ID NO: 73. […] DAP12 in DV-infected macrophages were precipitated by anti-DAP12 mAb, blotted to nitrocellulose paper after fractionation on SDS-PAGE, followed by incubation with antibodies against phosphotyrosine and DAP12, respectively. JEV-induced DAP12 phosphorylation (m.o.i.=5) is inhibited by pLL3.7/DVLR1/CLEC5A. […] JEV-induced TNF-α secretion is inhibited by […] mAb (right). Data are expressed as the mean±s.d. of three independent experiments.

T4 sequence (Q9UJ71 65-328 limits assumed): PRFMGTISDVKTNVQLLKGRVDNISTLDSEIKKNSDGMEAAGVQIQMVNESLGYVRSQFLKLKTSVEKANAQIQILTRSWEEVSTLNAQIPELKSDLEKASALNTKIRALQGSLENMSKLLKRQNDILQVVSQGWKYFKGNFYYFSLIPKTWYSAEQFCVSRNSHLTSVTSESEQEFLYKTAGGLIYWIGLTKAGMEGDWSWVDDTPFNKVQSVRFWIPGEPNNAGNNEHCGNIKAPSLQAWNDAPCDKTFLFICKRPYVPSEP
T5 sequence (O00206 24-631 limits assumed): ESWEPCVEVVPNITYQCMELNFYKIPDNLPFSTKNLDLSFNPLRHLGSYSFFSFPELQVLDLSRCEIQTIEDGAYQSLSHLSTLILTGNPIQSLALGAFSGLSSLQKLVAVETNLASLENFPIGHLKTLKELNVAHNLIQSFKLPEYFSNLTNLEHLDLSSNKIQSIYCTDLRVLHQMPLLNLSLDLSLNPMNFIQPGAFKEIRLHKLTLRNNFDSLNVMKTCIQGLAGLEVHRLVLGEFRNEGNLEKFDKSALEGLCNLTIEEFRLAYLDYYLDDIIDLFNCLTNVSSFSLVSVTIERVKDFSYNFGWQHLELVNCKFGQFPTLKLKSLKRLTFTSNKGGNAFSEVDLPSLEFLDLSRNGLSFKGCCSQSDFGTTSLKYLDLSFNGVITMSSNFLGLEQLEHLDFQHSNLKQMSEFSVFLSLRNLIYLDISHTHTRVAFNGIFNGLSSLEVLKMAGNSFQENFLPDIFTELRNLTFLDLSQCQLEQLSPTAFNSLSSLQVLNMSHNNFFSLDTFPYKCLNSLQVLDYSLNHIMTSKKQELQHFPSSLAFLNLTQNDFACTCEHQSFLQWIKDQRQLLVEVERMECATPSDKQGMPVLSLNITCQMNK

Molecule | inhibition of interaction between GLPS-F3 and MMR.Fc (MMR.Fc) [%] | inhibition of interaction between Fc.Langerin and GLPS-F3 (Langerin) [%] | Percentage of binding of TLR4.Fc to GLPS-F3 relative to binding in absence of sugar competitor (TLR4.Fc) [%] | inhibition of the DC-SIGN-DV interaction (DC-SIGN [1]) | inhibition of binding of Fc.DC-SIGN to GLPS-F3 (DC-SIGN [2]) [%] | interaction of receptor.Fc with Dengue virus (ELISA) (Dengue virus) | interaction with JEV (ELISA) (JEV)
O=C[C@@H](O)[C@@H](O)[C@H](O)[C@H](O)CO [Man, D-mannose] | 87 | 26 | 89 ± 2.6 | dose-dependent inhibition | 72 |  | 
B1 |  |  |  |  |  | not | only interacts
